Experimental data reported in US11690856B2, “Compounds for treating CMV related diseases” (INSERM (INSTITUT NATIONAL DE LA SANTE ET DE LA RECHERCHE …, priority 2017, dated 2023).

Tests used:
Assay type in all cases: in vivo, rat
[1] = system: microglia; assay: Immunohistochemistry and cell counting of microglia (Iba1, Ed1/Cd68) in CMV-infected pup brain; conditions: P1, lateral ventricular area; per os to dam E0 to birth; CMV untreated 42.74%, MEM 14.28%
Description: Immunohistochemistry experiments were carried out on coronal brain slices (50-100 μm, vibratome, Microm; 14 μm, cryostat, Leica) as described previously (9) with the following primary (anti-Iba1: 1/500, Wako; anti-Cd68, Ed1 clone: 1/200, Millipore) and secondary (Alexa Fluor 568 or 647-conjugated goat anti-rabbit or anti-mouse IgGs; Life Technologies) antibodies. Hoescht 33258 (1:2000, Sigma) was used for nuclei staining.
For cell counting analyses, at least three adjacent brain sections were analyzed throughout the entire z-dimension for each sample using confocal microscopy. […] Cells were counted manually in each brain with Cell Profiler cell image analysis software (Broad Institute Cambridge, Mass., USA). For each channel of stack images, mean image intensity was measured using “MeasureImageIntensity” module and cells were identified with “IdentifyPrimaryObjects” module, in which Min and Max typical diameter of objects was set between 20 and 80 pixel units, respectively, and threshold was corrected by the mean intensity measured previously. Then, using mask images generated with the aforementioned module, colocalization between channels was evaluated with “RelateObjects” and “MaskObjects” in order to determine the number of overlapping objects. Finally, data were exported to a spreadsheet containing the number of quantified cells for each staining and of colocalizations. […]

[2] = system: CMV-infected pups; assay: Postnatal survival of pups infected with CMV in utero
Description: (§1) Wistar rats (Janvier Labs, France) were raised and mated at INMED Post Genomic Platform (PPGI) animal facility. Rat cytomegalovirus (rat CMV) recombinant Maastricht strain (RCMV-Δ145-147-gfp) with a green fluorescent protein (GFP) expression cassette, and its production, purification and titration, were reported previously (17). In utero icv injections were performed at E15 as previously described (9,18) in embryos from timed pregnant rats that were anaesthetized with ketamine (100 mg/kg)/xylazine (10 mg/kg). […] Microglia status was modified in the embryos in vivo with doxycycline per os given to the mother throughout pregnancy (200 mg/kg in food pellet chow, Bioserv).
Data were expressed as means ±s.e.m. unless otherwise stated. Non-parametric Mann Whitney test (two-tailed) followed by Bonferroni correction if needed, and non-parametric Kruskall-Wallis test to detect heterogeneous distribution between groups followed by Dunn's post test for multiple comparisons. were used whenever appropriate. Univariate Cox analysis and Fisher's exact test (two-tailed) were used to compare between survival distributions and rates and parametric Student's t test was used to compare between weight gains, whereas Chi-square test with Bonferroni correction and mixed model for repeated data using PROC GLIMMIX with sas 9.4 were used for all other phenotypic comparisons between groups of animals.

[3] = system: CMV-infected pups; assay: Righting reflex sensorimotor test; conditions: treated in utero vs untreated infected pups; P1-P20; p=0.025
Description: as §1
(§2) For righting reflex evaluation, rat pups were placed in a supine position, and the time required to flip to the prone position was measured. For the cliff aversion reflex, animals were placed with their forepaws overhanging the edge of a board; the time required to turn >90° away from the edge was recorded. […] Generalized tonic-clonic epileptic seizures were detected visually, usually after animal handling, especially during cage changing and behavioral testing. […] For each rat, the reference electrode was inserted beneath the pinna of the assessed ear, the positive electrode beneath the skin on the vertex of the head, the ground electrode on the animal's back. […] Impedances were monitored to be below 2000Ω. […]

[4] = system: CMV-infected pups; assay: Cliff aversion reflex sensorimotor test; conditions: treated in utero vs untreated infected pups; P1-P20; p<10^-4
Description: as §1, §2

[5] = system: CMV-infected pups; assay: Hindlimb paralysis, determined visually
Description: as §1, §2

[6] = system: CMV-infected pups; assay: Generalized tonic-clonic epileptic seizures, detected visually
Description: as §1, §2

[7] = system: microglia; assay: Flow cytometry of brain leukocytes (CD45, CD11b/c, RT1B) for microglia status
Description: as §1
Leukocytes from brains obtained from anesthetized P1 or P7 pups were isolated as previously described (9). 1 to 3×10^6 leukocytes were incubated with Zombie NIR Fixable Viability kit (1:200; Bio legend) for 20 min at RT. Fc receptors were blocked using mouse anti-rat CD32 antibody (FcγII receptor, clone D34-485) for 10 min. at 4° C. to prevent against nonspecific binding. Cells were then stained with antibodies against combinations of cell surface markers as previously listed and described (9). An average of 1.3×10^5 living singlet cells were analyzed per brain equivalent on a BD LSRFortessa cell cytometer and raw data were analyzed using FACSDiva V8.0 software (BD Biosciences).

Structure (SMILES): C[C@H]1c2cccc(O)c2C(=O)C2=C(O)[C@]3(O)C(=O)C(C(N)=O)=C(O)[C@@H](N(C)C)[C@@H]3[C@@H](O)[C@@H]21 [doxycycline]
- phagocytic activation index (PAI), ratio of Iba1+ Ed1+ cells to total Iba1+ cells [1]: 17.32%
- infected pups survived at P20 ([2]; dams treated per os throughout pregnancy, untreated 29.6%): 86.1%
- lower risk to postnatal death ([2]; first three postnatal weeks, treated in utero vs untreated CMV-infected, p=0.0006): 5.1
- success to righting, odds ratio [3]: 2.6
- success to cliff aversion, odds ratio [4]: 9.9
- CMV-infected pups displaying hindlimb paralysis ([5]; first three postnatal weeks, untreated 83.3%, p=0.001): 50%
- drop in risk of hindlimb paralysis ([5]; treated vs untreated, p=0.03): 6.2 fold
- decrease in risk of epileptic seizures ([6]; period of evaluation, treated in utero, p<10^-4): 5.9 fold
- proportion of epileptic CMV-infected rats ([6]; untreated 24%, p=0.12): 11%
- proportion of reactive CD45low/int, CD11b/c+, RT1B+ microglia (fraction IV) ([7]; P7, after treatment discontinuation, untreated 58.93%): 55.76%
- proportion of MHC class II-positive reactive microglia (fraction IV: CD45low/int, CD11b/c+, RT1B+) ([7]; whole brain at P1, CMV untreated 13.98%, controls 0.73%): 5.66%
